Laboratory results published in paper PMC3914206.

Experiments:
Type in all cases: binding
panel of 442 kinases [1] = molecular target: T1, panel of 442 kinases (Homo sapiens, UniProt O00444); conditions: Compound Concentration 10 µM
T1 construct: purchased KINOMEscan
T1 sequence (O00444 1-970): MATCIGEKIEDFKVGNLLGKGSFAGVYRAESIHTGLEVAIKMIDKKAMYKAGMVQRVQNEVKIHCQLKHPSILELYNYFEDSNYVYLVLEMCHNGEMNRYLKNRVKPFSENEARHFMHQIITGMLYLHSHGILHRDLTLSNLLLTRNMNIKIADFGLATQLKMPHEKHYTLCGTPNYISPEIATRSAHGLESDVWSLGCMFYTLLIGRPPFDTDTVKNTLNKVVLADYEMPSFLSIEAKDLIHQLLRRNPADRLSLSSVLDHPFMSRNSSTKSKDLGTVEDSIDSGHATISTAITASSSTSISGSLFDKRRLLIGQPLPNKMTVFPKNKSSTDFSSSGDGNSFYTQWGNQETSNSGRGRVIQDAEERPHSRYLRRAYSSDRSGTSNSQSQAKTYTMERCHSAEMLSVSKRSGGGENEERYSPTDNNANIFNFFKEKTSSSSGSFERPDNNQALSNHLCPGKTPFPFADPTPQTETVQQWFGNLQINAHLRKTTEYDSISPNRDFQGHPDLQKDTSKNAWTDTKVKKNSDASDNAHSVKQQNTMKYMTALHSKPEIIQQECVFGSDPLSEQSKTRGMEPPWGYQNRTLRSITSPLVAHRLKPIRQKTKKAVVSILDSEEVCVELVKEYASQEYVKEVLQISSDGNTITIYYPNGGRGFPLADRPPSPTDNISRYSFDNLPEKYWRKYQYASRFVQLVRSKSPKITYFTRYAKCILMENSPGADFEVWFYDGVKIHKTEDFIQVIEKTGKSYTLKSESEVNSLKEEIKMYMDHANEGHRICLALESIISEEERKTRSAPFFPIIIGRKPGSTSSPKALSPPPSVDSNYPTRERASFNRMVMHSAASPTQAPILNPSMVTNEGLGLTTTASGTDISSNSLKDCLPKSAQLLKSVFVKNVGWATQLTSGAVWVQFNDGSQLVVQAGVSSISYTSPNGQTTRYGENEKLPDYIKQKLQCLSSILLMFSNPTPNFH
Description: (§1) We assessed the selectivity of members of this scaffold using the KINOMEscan methodology across a near comprehensive panel of 442 kinases [[18,27]].

panel of 442 kinases [2] = molecular target: T2, panel of 442 kinases (Homo sapiens, UniProt Q16584); conditions: Compound Concentration 10 µM
T2 construct: purchased KINOMEscan
T2 sequence (Q16584 whole entry): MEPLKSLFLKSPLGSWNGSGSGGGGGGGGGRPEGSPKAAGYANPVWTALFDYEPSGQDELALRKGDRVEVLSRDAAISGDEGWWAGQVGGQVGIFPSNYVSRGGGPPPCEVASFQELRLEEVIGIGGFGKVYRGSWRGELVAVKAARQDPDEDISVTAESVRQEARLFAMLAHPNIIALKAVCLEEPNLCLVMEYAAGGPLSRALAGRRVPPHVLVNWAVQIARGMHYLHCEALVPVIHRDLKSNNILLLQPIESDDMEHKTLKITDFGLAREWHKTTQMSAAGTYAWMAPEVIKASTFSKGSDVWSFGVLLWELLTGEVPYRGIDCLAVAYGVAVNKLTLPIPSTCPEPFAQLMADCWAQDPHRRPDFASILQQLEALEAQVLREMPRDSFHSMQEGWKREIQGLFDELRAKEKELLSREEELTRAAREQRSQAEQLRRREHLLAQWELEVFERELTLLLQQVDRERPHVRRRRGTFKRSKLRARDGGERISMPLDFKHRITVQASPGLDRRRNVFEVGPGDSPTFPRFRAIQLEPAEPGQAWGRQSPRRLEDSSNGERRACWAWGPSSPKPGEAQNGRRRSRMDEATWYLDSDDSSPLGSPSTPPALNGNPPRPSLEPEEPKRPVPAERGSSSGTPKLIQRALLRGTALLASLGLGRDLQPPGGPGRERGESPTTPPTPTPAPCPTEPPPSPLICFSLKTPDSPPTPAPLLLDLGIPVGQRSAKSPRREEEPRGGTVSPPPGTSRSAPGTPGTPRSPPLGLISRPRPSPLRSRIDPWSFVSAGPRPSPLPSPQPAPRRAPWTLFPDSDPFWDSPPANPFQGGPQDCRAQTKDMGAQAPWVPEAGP
Description: as §1

panel of 442 kinases [3] = molecular target: T3, panel of 442 kinases (Homo sapiens, UniProt P30291); conditions: kinase WEE1; compound concentration 10 µM
T3 construct: purchased KINOMEscan
T3 sequence (P30291 whole entry): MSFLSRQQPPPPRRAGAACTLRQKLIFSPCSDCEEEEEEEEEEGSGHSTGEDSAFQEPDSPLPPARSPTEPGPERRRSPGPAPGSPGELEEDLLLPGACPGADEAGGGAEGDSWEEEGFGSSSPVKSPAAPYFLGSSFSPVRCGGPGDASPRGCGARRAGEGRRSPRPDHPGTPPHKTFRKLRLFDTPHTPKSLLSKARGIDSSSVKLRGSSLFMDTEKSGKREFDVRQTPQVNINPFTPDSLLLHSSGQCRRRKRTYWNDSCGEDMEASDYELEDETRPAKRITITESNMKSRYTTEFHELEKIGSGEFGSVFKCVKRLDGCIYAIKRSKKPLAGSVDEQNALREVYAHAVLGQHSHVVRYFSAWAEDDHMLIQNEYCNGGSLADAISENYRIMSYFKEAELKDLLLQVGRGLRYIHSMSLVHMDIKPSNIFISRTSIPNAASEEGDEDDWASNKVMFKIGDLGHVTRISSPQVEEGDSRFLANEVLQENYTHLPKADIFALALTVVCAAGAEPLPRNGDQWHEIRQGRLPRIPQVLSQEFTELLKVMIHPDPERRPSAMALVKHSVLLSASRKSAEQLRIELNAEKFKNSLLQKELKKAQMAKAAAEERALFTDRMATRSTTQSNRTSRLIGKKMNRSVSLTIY
Description: as §1

| Compound | KINOMEscan: PLK4 (panel of 442 kinases [1]) | KINOMEscan: MLK3 (panel of 442 kinases [2]) | % Ctrl, WEE1 (panel of 442 kinases [3]) [% Ctrl] |
| --- | --- | --- | --- |
| COc1cc(C(=O)N2CCC(N3CCN(C)CC3)CC2)ccc1Nc1ncc2c(n1)N(C)c1ccccc1C(=O)N2C [15 (LRRK2-IN-1)] | 0 | 100 | 100 |
| CCOc1cc(C(=O)N2CCC(N3CCN(C)CC3)CC2)ccc1Nc1ncc2c(n1)N(C1CCCC1)c1ccccc1C(=O)N2C [Compound 26] | 5.1 | 100 | 100 |
| COc1cc(C(=O)N2CCC(N3CCN(C)CC3)CC2)ccc1Nc1ncc2c(n1)N1CCc3cccc(c31)C(=O)N2C [Compound 24] | 0.3 | – | 82 |
| COc1cc(C(=O)N2CCC(N3CCN(C)CC3)CC2)ccc1Nc1ncc2c(n1)N(C1CCCC1)c1ccccc1C(=O)N2C [Compound 25, 11-cyclopentyl-2-((2-methoxy-4-(4-(4-methylpiperazin-1-yl)piperidine-1-carbonyl)phenyl)amino)-5-methyl-5H-benzo[e]pyrimido[5,4-b][1,4]diazepin-6(11H)-one] | 0.25 | 100 | 98 |
